{"source": "patent US20080044348A1", "about": "(priority 2006, published 2008)"}
{"system": "HIF1α signaling", "format": "cell-based", "units": {"time to induce hypoxia in the entire spheroid": "h"}}
{"compound": "COc1ccc(C[C@H]2NC[C@H](O)[C@H]2OC(C)=O)cc1", "note": "[Anisomycin]", "effect on CoCl2-induced HIF1α signaling": "suppressed CoCl2-induced HIF1α signaling"}
{"compound": "COc1cc(C[C@H]2C(=O)OC[C@@H]2Cc2ccc(OC)c(OC)c2)ccc1O", "note": "[Arctigenin]", "effect on CoCl2-induced HIF1α signaling": "suppressed CoCl2-induced HIF1α signaling"}
{"compound": "[Cl][Co][Cl]", "note": "[Cobalt chloride]", "time to induce hypoxia in the entire spheroid": "6 to 8"}
{"compound": "COc1cc2c(cc1OC)[C@@H]1C(=O)c3ccc4c(c3O[C@@H]1CO2)C=CC(C)(C)O4", "note": "[Deguelin]", "effect on CoCl2-induced HIF1α signaling": "no significant effect on HIF1α signaling"}
{"compound": "Nc1ccn([C@@H]2O[C@H](CO)[C@@H](O)C2(F)F)c(=O)n1", "note": "[Gemzar]", "effect on CoCl2-induced HIF1α signaling": "suppressed CoCl2-induced HIF1α signaling"}
{"compound": "Cc1ccc(NC(=O)c2ccc(CN3CCN(C)CC3)cc2)cc1Nc1nccc(-c2cccnc2)n1", "note": "[Gleevec]", "effect on CoCl2-induced HIF1α signaling": "no significant effect on HIF1α signaling"}
{"compound": "COc1cc2ncnc(Nc3ccc(F)c(Cl)c3)c2cc1OCCCN1CCOCC1", "note": "[Iressa]", "effect on CoCl2-induced HIF1α signaling": "suppressed CoCl2-induced HIF1α signaling"}
{"compound": "CCCCCCCCCCC[C@@H](C[C@@H]1OC(=O)[C@H]1CCCCCC)OC(=O)[C@H](CC(C)C)NC=O", "note": "[Orlistat]", "effect on CoCl2-induced HIF1α signaling": "suppressed CoCl2-induced HIF1α signaling"}
{"compound": "C[S+]([O-])c1ccc(-c2nc(-c3ccncc3)c(-c3ccc(F)cc3)[nH]2)cc1", "note": "(centres unmarked) [SB 203580]", "effect on CoCl2-induced HIF1α signaling": "no significant effect on HIF1α signaling"}
{"compound": "C#Cc1cccc(Nc2ncnc3cc(OCCOC)c(OCCOC)cc23)c1", "note": "[Tarceva]", "effect on CoCl2-induced HIF1α signaling": "suppressed CoCl2-induced HIF1α signaling"}
{"compound": "PD 168393", "effect on CoCl2-induced HIF1α signaling": "no significant effect on HIF1α signaling"}
